6 compounds from ChEMBL document CHEMBL1201862, “PubChem BioAssay data set” (2004) can be followed below.

Molecules are shown by their SMILES. The source made the active and inactive calls.

Assay [1] in a line: P. falciparum Dd2 growth inhibitors, dose response, SYBR Green, dry powder samples (AID 1159566).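 Also: potency for growth inhibition with lower SYBR green DNA signal.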 Format: functional, cell-based.
Assay [2] in a line: P. falciparum Dd2 growth inhibitors, dose response, SYBR Green, cherry-picked samples (AID 1159567). Format: functional, cell-based.
The nature of assay [3]: P. falciparum Dd2 blood-stage growth inhibition, dose response, SYBR Green fluorescence, erythrocytes, dry powder, set 2 (AID 1159574). Format: functional, cell-based.
A short description of assay [4]: P. falciparum 3D7-ScDHODH growth inhibitors, dose response, SYBR Green, dry powder samples (AID 1159570).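 Also: parasite growth measured after 72 hours of compound exposure.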 Format: functional, cell-based.
A short description of assay [5]: P. falciparum ATP4 D1247Y mutant growth inhibitors, dose response, NITD609-resistant line, SYBR Green, dry powder (AID 1159571).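 Also: parasites synchronized at ring stage by sorbitol before testing.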 Format: functional, cell-based.
Assay [6] is described as follows: HepG2 cell cytotoxicity, dose response, cytotoxicity control, plate reader, dry powder samples (AID 1159569).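 Also: inhibitor potency with signal falling toward the positive control level.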 Format: functional, cell-based.
The nature of assay [7]: HEK293T cell cytotoxicity, dose response, cytotoxicity control, plate reader, dry powder, set 10 (AID 743315). Format: functional, cell-based. Conditions: HEK293.
A short description of assay [8]: antifungal activity, alamar blue, dry powder, counter-screen for C. neoformans cell wall antifungals, dose response (AID 743128). Format: functional, organism-based.
Assay [9] deals with T1, Short transient receptor potential channel 4 (Mus musculus, UniProt Q9QUQ5).
T1 sequence (Q9QUQ5 whole entry): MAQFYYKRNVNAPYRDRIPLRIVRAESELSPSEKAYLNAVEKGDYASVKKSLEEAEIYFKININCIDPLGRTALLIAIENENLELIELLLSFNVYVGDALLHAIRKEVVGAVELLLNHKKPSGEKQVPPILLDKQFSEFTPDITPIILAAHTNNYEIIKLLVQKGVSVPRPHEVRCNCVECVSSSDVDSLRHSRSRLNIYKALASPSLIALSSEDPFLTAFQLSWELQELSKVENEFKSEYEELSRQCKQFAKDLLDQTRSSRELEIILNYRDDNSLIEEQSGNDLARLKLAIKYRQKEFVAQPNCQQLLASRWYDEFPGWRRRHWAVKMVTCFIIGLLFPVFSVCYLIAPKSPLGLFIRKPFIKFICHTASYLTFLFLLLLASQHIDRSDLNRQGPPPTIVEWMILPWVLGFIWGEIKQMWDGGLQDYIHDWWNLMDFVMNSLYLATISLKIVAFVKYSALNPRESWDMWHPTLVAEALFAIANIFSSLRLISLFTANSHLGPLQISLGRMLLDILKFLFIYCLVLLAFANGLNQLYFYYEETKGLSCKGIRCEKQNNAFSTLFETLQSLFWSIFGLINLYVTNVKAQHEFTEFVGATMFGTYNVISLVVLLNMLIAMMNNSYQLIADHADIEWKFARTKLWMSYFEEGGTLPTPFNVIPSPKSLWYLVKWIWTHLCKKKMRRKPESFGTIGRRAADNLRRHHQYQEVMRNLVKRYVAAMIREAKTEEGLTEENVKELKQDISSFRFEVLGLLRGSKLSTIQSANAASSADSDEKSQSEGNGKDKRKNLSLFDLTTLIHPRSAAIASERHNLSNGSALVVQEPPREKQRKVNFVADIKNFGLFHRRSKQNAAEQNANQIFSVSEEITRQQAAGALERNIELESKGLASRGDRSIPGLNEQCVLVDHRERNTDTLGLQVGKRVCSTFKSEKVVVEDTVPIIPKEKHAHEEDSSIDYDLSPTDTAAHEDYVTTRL
The assay can be described thus: mouse TRPC4 channel inhibitors, dose response, cell-based, HEK293 TRPC4/mu-opioid, Fluo-4 calcium (AID 434942).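 Also: potency of inhibitors blocking the TRPC4 calcium response.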 Format: functional.

Assay [10] concerns the target Cytochrome P450 3A4 (Homo sapiens, UniProt P08684).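 Also: CYP3A4 tested as one member of a cytochrome P450 panel screen.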
The target of assay [11] is Heat shock protein HSP90 (Homo sapiens, UniProt P07900+P08238). In words: tumor Hsp90 inhibitor potency, dose response (AID 712). Format: functional.
Assay [12] is described as follows: half-maximal inhibitory concentration for glucagon-like peptide-1 release, STC-1 cell line, dose-response (AID 1117345). Format: functional, cell-based.
A short description of assay [13]: Glucagon-like peptide 1 release potency, NCI-H716 cell line, dose-response, half-maximal inhibitory concentration (AID 1117344). Format: functional, cell-based.
The nature of assay [14]: HEp-2 cell cytotoxicity, dose response, cytotoxicity control for RSV inhibitor project, HTS (AID 2410). Format: functional. Conditions: human respiratory syncytial virus.
For assay [15], the system named is Streptococcus sp. 'group A'. The assay can be described thus: growth inhibition of control SK(-) GAS strain, dose response, counter-screen for streptokinase expression inhibitor project, luminescence, kanamycin, BacTiterGlo, confirmation (AID 1900). Format: functional, organism-based.
Assay [16] has as its target T2, Streptokinase A (Streptococcus pyogenes serotype M1, UniProt P10520).
T2 sequence (P10520 whole entry): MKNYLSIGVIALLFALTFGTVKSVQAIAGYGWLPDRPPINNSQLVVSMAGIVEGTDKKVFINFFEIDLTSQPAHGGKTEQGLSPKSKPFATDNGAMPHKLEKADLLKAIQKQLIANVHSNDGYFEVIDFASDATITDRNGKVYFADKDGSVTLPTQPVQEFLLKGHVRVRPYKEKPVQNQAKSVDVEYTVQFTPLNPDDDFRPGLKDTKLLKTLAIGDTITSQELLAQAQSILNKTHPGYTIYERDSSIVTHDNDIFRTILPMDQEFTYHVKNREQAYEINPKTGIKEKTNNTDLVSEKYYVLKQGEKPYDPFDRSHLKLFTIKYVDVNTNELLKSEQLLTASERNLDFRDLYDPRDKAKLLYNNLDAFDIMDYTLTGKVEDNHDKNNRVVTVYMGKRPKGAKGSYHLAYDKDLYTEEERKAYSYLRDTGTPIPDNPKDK
The assay can be described thus: S. pyogenes streptokinase expression inhibitors, potency, dose response, plasminogen activation absorbance, OD405 (AID 1914).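 Also: secreted streptokinase activity via plasminogen activation per viability signal from cell pellet.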 Format: functional, Streptococcus pyogenes M1 GAS.

In assay [17] the test system is Streptococcus. The assay can be described thus: Group A Streptococcus viability loss, dose response, counter-screen for streptokinase expression inhibitor project, luminescence, BacTiterGlo (AID 1915).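 Also: potency for reduction of bacterial viability or growth.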 Format: functional, organism-based.
Assay [18] in a line: M. tuberculosis growth inhibition, HTS (AID 449762). Format: functional.
Assay [19] has as its target Metabotropic glutamate receptor 7 (Homo sapiens, UniProt Q14831). In words: mGlu7 positive allosteric modulators, dose response, cell-based, calcium mobilization, Galpha15 (AID 743384). Format: functional.

Chain of Cytochrome P450 3A4 (P08684 whole entry): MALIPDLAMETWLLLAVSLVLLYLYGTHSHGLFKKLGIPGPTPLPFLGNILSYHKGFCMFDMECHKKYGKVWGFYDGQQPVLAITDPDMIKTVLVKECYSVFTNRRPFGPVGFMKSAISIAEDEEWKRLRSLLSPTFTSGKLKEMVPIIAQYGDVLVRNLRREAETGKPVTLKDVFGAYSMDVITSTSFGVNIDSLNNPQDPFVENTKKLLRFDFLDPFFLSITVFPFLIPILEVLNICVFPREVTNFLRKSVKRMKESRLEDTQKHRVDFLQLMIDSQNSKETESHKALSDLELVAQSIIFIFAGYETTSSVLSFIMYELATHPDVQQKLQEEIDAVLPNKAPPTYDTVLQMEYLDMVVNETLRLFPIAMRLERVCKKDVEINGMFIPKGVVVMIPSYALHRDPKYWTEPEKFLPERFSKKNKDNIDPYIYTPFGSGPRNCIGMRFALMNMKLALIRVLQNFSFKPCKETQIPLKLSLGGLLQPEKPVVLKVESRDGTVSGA
Chain of Metabotropic glutamate receptor 7 (Q14831 whole entry): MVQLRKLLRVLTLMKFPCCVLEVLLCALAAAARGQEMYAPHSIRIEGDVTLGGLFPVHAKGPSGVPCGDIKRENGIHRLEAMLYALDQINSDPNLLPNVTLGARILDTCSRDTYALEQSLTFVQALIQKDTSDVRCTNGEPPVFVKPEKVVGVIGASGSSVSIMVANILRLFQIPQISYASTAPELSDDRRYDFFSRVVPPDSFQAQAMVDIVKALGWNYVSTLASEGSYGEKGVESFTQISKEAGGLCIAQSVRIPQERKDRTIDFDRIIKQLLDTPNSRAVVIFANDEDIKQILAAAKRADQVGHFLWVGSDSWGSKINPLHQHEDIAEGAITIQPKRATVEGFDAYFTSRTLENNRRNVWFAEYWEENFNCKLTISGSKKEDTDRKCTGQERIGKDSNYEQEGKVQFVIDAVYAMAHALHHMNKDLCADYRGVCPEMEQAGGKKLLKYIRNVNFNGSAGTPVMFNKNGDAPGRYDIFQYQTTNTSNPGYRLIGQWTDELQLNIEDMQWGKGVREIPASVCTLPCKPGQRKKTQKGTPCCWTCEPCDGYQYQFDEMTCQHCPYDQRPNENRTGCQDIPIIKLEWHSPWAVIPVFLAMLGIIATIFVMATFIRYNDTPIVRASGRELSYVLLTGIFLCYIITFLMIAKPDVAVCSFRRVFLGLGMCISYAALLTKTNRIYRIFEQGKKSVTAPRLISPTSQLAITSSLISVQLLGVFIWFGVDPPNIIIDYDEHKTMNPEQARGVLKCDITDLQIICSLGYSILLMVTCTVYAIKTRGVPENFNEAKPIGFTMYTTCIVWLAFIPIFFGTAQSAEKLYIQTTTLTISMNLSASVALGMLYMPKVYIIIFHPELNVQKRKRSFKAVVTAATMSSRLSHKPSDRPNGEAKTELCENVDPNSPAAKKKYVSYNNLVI

Regarding `COc1ccc(S(=O)(=O)N(C)C[C@@H]2OCc3ccccc3-c3c(n(C)c4ccccc34)C(=O)N([C@@H](C)CO)C[C@@H]2C)cc1`, the AC50 is 0.0794 µM (active) in assay [1]; 0.689 µM (active) in assay [2]; 0.853 µM (active) in assay [3]; 0.126 µM (active) in [4]; 0.115 µM (active) in assay [5]; 84.3 µM (active) in assay [6].
Regarding `Cc1ccc(OCCn2c(C)nc3ccccc32)cc1`, the AC50 was 40.5 µM (active) in assay [7] and 41.6 µM (active) in assay [8]. In addition, in assay [9], the EC50 is 0.944 µM (active).
Regarding `CN(c1ccccc1)c1ccc(/C=c2\s/c(=C(/C#N)C(=O)C(C)(C)C)n(Cc3ccco3)c2=O)cc1`, the AC50 in assay [10] is 6.31 µM (inconclusive). The compound also came in with an IC50 in assay [11] of 13.4314 µM.
Regarding `Cc1cc(O)c(C(C)C)cc1Cl` [CHLOROTHYMOL], the IC50 was 14.1 µM (inactive) in assay [12] and 26.5 µM (inactive) in [13].
On to `Oc1ccc(/C=N/n2c3ccccc3c3ccccc32)cc1`, for which the CC50 in [14] was 17.2 µM (active). Besides, the results for the EC50 in [15], in assay [16] and in assay [17] were 6.24 µM (active), > 150 µM (not active) and 10.8 µM (active), respectively. Moreover, the IC50 in assay [18] is > 100 µM (active).
Turning to `COC(=O)c1ccc(-n2c(C)cc(C(=O)CSCc3cccc(C)c3)c2C)cc1`, in assay [19], the EC50 was 10 µM (active).
